From patent US12421253B2 (Mirati Therapeutics, Inc., priority 2020, dated 2025)

Columns and labels:
KRas^G12A = target: T1, KRas^G12A (Homo sapiens, UniProt P01116, G12A); test: KRas binding assay (TR-FRET displacement of Cy5 labelled tracer)
T1 construct: […]; biotin (biotinylated); purchased Accelegan Inc

KRas^Q61H = KRas^Q61H (Homo sapiens, UniProt P01116, Q61H); test: biochemical
KRas^WT = target: T2, KRas^WT (Homo sapiens, UniProt P01116); test: KRas binding assay (TR-FRET displacement of Cy5 labelled tracer)
T2 construct: […]; biotin (biotinylated); purchased Accelegan Inc

KRas^G12D = target: T3, KRas^G12D (Homo sapiens, UniProt P01116, G12D); test: as above
T3 construct: […]; biotin (biotinylated); purchased Accelegan Inc

KRas^G12R = target: T4, KRas^G12R (Homo sapiens, UniProt P01116, G12R); test: as above
T4 construct: […]; biotin (biotinylated); purchased Accelegan Inc

KRas^G12V = target: T5, KRas^G12V (Homo sapiens, UniProt P01116, G12V); test: as above
T5 construct: […]; biotin (biotinylated); purchased Accelegan Inc

KRas^G12S = target: T6, KRas^G12S (Homo sapiens, UniProt P01116, G12S); test: as above
T6 construct: […]; biotin (biotinylated); purchased Accelegan Inc

KRas^G12C = KRas^G12C (Homo sapiens, UniProt P01116, G12C); test: biochemical
KRas^G13D = KRas^G13D (Homo sapiens, UniProt P01116, G13D); test: biochemical
[1] = test system: NCI-H460 (Q61H) cells, phospho-ERK; test: Inhibition of KRas-mediated phosphorylation of ERK (phospho-ERK/GAPDH antibody detection, LI-COR); assay type: cell-based; conditions: Homo sapiens, 3 hours
Method: (§1) AsPC-1 (G12D, ATCC CRL-1682), A549 (G12S, ATCC CCL-185), HCT116 (G13D, ATCC CCL-247) cells were grown in DMEM medium supplemented with 10% fetal bovine serum and Penicillin/Streptomycin. NCI-H358 (G12C, ATCC CRL-5807), NCI-H460 (Q61H, ATCC HTB-117), NCI-H727 (G12V, ATCC CRL-5815), MKN1 (WTdep, JCRB JCRB0252), PSN-1 (G12R, ATCC CRM-CRL-3211) cells were grown in RPMI medium supplemented with 10% fetal bovine serum, 10 mM HEPES, 10 mM Sodium Pyruvate, and Penicillin/Streptomycin. Cells were plated in black well clear bottom tissue culture treated 96 well plates (Corning, 3904) at a density of 20,000 cells/well and allowed to attach for 12-14 hours. Diluted compounds were then added in a final concentration of 0.5% DMSO. After 3 hours, 50 μL of 4.0% formaldehyde was added and the plates incubated at room temperature for 20 minutes. The plates were then dumped and permeabilized with 150 μL of ice cold 100% methanol for 10 minutes. Non-specific antibody binding to the plates was blocked using 100 μL Odyssey blocking buffer (LI-COR Biosciences, 927-60010) for 1 hour at room temperature.
(§2) The amount of phospho-ERK was determined using an antibody specific for the phosphorylated form of ERK and compared to the amount of GAPDH. Primary antibodies used for the detection were added as follows: Phospho-ERK (Cell Signaling CS-9101) diluted 1:500 and GAPDH (Millipore MAB374) diluted 1:5000 in Odyssey blocking buffer+0.05% Tween 20. The plates were incubated overnight at 4 C. The plates were washed 3× with 150 uL PBS+0.1% Tween 20.
(§3) Secondary antibodies used to visualize primary antibodies were added as follows: Goat Anti-Rabbit-800 (LI-COR, 926-32211) and Goat Anti-Mouse-680 (LI-COR, 926-68070) diluted 1:800 both in Odyssey blocking buffer+0.05% Tween 20 and were incubated for 1 hour at room temperature. The plates were washed 3× with 150 uL PBS+[…]. Plates were imaged dry on a Li—COR Odyssey CLX plate reader.
(§4) The phospho-ERK (Thr202/Tyr204) signal was normalized to the GAPDH signal for each well and percent of DMSO control values were calculated. IC50 values were generated using a 4-parameter fit of the dose response curve.

[2] = test system: NCI-H727 (G12V) cells, phospho-ERK; test: as above; assay type: cell-based; conditions: Homo sapiens, 3 hours
Method: as §1, §2, §3, §4

[3] = test system: AsPC-1 (G12D) cells, phospho-ERK; test: as above; assay type: cell-based; conditions: Homo sapiens, ASPC1, 3 hours
Method: as §1, §2, §3, §4

MKN1 cells, pERK = test: Inhibition of KRas phosphorylation of ERK (Cisbio HTRF Advanced pERK assay); assay type: cell-based; conditions: Homo sapiens, MKN-1, 3 h, read-out: Inhibition (HTRF IC50 nM) of KRas-mediated Phosphorylation of ERK, MKN1
In short: (§5)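 Cells were seeded overnight in RPMI with 10% FBS, then treated for 3 h at 37 °C with 10-dose, 3-fold compound titrations from 10 uM (0.8% DMSO final). After lysis at 4 °C, phospho-ERK was quantified by HTRF using d2- and cryptate-labelled antibodies; 0.2 uM trametinib served as minimum control.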

H727 cells, pERK = test: as above; assay type: cell-based; conditions: Homo sapiens, NCI-H727, 3 h, read-out: Inhibition (HTRF IC50 nM) of KRas-mediated Phosphorylation of ERK, H727
In short: as §5

HCT116 cells, pERK = test: as above; assay type: cell-based; conditions: Homo sapiens, HCT-116, 3 hrs, read-out: Inhibition (HTRF IC50 nM) of KRas-mediated Phosphorylation of ERK, HCT116
In short: as §5

ASPC1 cells, pERK = test: as above; assay type: cell-based; conditions: Homo sapiens, ASPC1, 3 h, AsPC-1 cells, read-out: Inhibition (HTRF IC50 nM) of KRas-mediated Phosphorylation of ERK, AsPC-1
In short: as §5

PSN1 cells, pERK = test: as above; assay type: cell-based; conditions: Homo sapiens, PSN1, 3 h, read-out: Inhibition (HTRF IC50 nM) of KRas-mediated Phosphorylation of ERK, PSN1
In short: as §5

H460 cells, pERK = test: as above; assay type: cell-based; conditions: Homo sapiens, NCI-H460, 3 hrs, read-out: Inhibition (HTRF IC50 nM) of KRas-mediated Phosphorylation of ERK, H460
In short: as §5

T3 sequence (P01116 1-169 isoform P01116-2 G12D): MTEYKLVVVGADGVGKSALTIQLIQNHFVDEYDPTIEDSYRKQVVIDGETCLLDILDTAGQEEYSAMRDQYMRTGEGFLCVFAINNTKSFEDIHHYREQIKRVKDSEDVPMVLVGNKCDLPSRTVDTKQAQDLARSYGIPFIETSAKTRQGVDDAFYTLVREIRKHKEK
T4 sequence (P01116 1-169 isoform P01116-2 G12R): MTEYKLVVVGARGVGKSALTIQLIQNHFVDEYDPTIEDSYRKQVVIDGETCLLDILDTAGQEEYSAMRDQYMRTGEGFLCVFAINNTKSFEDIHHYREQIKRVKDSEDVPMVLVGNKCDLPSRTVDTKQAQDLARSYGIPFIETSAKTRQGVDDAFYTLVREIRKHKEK
T5 sequence (P01116 1-169 isoform P01116-2 G12V): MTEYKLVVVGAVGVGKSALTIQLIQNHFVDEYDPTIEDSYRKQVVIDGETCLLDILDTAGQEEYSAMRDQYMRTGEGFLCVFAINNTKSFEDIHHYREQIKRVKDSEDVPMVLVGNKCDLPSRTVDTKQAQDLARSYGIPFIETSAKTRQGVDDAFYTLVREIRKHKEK
Chain of KRas^G13D (P01116 1-169 isoform P01116-2 G13D): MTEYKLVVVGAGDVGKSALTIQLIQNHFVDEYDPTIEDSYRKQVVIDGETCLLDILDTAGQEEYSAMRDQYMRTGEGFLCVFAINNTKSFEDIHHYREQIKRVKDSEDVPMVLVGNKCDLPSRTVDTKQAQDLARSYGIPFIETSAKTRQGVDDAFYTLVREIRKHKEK
T1 sequence (P01116 1-169 isoform P01116-2 G12A): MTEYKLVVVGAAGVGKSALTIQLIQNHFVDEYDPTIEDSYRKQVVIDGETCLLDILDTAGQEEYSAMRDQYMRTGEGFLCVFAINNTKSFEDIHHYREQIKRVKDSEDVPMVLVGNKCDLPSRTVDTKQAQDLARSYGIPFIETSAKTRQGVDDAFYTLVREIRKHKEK
T6 sequence (P01116 1-169 isoform P01116-2 G12S): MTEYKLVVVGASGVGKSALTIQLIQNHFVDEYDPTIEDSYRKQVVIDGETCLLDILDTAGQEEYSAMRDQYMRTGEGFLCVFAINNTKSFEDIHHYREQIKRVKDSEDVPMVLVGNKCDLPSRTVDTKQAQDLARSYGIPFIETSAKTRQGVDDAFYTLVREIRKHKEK
Chain of KRas^Q61H (P01116 1-169 isoform P01116-2 Q61H): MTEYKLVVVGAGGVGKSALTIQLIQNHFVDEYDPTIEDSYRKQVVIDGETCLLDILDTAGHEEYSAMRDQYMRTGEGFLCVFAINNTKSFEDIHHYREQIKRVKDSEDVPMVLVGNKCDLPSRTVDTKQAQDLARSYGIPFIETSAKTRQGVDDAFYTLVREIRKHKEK
T2 sequence (P01116 1-169 isoform P01116-2): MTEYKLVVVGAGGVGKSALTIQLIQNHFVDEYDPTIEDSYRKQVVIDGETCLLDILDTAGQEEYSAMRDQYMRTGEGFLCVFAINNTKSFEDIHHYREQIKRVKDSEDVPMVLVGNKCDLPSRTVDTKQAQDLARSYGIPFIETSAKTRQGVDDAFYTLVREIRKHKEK
Chain of KRas^G12C (P01116 1-169 isoform P01116-2 G12C): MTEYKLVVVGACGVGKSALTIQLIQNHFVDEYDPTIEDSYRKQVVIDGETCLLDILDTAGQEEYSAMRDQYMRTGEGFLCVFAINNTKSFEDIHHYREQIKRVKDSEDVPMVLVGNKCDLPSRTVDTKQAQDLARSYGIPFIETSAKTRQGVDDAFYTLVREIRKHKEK

Structure (SMILES)	IC50 (KRas^G12D) [nM]	IC50 (KRas^G12R) [nM]	IC50 (KRas^G12V) [nM]	IC50 (MKN1 cells, pERK) [nM]	IC50 (H727 cells, pERK) [nM]	IC50 (HCT116 cells, pERK) [nM]	IC50 (ASPC1 cells, pERK) [nM]	IC50 (PSN1 cells, pERK) [nM]	IC50 (H460 cells, pERK) [nM]	IC50 (KRas^G12A) [nM]	IC50 (KRas^Q61H) [nM]	IC50 (KRas^WT) [nM]	IC50 (KRas^G12S) [nM]	IC50 (KRas^G12C) [nM]	IC50 (KRas^G13D) [nM]	IC50 [1] [nM]	IC50 [2] [nM]	IC50 [3] [nM]
CCc1c(F)ccc2cc(O)cc(N3CCc4c(nc(OC[C@@]56CCCN5C[C@H](F)C6)nc4N4CCC(c5[nH]ncc5N)C4)C3)c12 (stereo partly drawn) [Example 26, 4-(4-(3-(4-amino-1H-pyrazol-5-yl)pyrrolidin-1-yl)-2-(((2R,7aS)-2-fluorohexahydro-1H-pyrrolizin-7a-yl)methoxy)-5,6-dihydropyrido[3,4-d]pyrimidin-7(8H)-yl)-5-ethyl-6-fluoronaphthalen-2-ol]	110	5	4	–	–	–	–	–	–	7	22	24	10	7	34	3260	3120	10000
Nc1cc2n(n1)CCCN(c1nc(OC[C@@]34CCCN3C[C@H](F)C4)nc3c1CCN(c1cc(O)cc4ccc(F)c(Cl)c14)C3)C2 [Example 75, 4-(4-(2-amino-7,8-dihydro-4H-pyrazolo[1,5-a][1,4]diazepin-5(6H)-yl)-2-(((2R,7aS)-2-fluorohexahydro-1H-pyrrolizin-7a-yl)methoxy)-5,6-dihydropyrido[3,4-d]pyrimidin-7(8H)-yl)-5-chloro-6-fluoronaphthalen-2-ol]	≤ 2	≤ 2	3	128	242	2160	128	≥ 10000	–	–	–	–	–	–	–	–	–	–
CCc1c(F)ccc2cc(O)cc(N3CCc4c(nc(OC[C@@]56CCCN5C[C@H](F)C6)nc4N4CCCc5ncccc5C4)C3)c12 [Example 180, 4-(4-(8,9-dihydro-5H-pyrido[3,2-c]azepin-6(7H)-yl)-2-(((2R,7aS)-2-fluorohexahydro-1H-pyrrolizin-7a-yl)methoxy)-5,6-dihydropyrido[3,4-d]pyrimidin-7(8H)-yl)-5-ethyl-6-fluoronaphthalen-2-ol]	4	6	8	462	600	–	383	≥ 10000	1560	–	–	–	–	–	–	–	–	–
CCc1c(F)ccc2cc(O)cc(N3CCc4c(nc(OC[C@@]56CCCN5C[C@H](F)C6)nc4N4CCCC5(CNC(=O)C5)C4)C3)c12 (stereo partly drawn) [Example 197, 7-(7-(8-ethyl-7-fluoro-3-hydroxynaphthalen-1-yl)-2-(((2R,7aS)-2-fluorohexahydro-1H-pyrrolizin-7a-yl)methoxy)-5,6,7,8-tetrahydropyrido[3,4-d]pyrimidin-4-yl)-2,7-diazaspiro[4.5]decan-3-one]	≤ 2	≤ 2	≤ 2	12	313	499	136	1690	285	–	–	–	–	–	–	–	–	–

More lines, main results first:

IC50 (KRas^G12D) [nM]	IC50 (KRas^G12R) [nM]	IC50 (KRas^G12V) [nM]	IC50 (MKN1 cells, pERK) [nM]	IC50 (H727 cells, pERK) [nM]	IC50 (HCT116 cells, pERK) [nM]	IC50 (ASPC1 cells, pERK) [nM]	IC50 (PSN1 cells, pERK) [nM]	IC50 (H460 cells, pERK) [nM]	Structure (SMILES)	IC50 (KRas^G12A) [nM]	IC50 (KRas^Q61H) [nM]	IC50 (KRas^WT) [nM]	IC50 (KRas^G12S) [nM]	IC50 (KRas^G12C) [nM]	IC50 (KRas^G13D) [nM]	IC50 [1] [nM]	IC50 [2] [nM]	IC50 [3] [nM]
≤ 2	3	≤ 2	71	423	1170	112	2260	421	C[C@@]1(O)CCCN(c2nc(OC[C@@]34CCCN3C[C@H](F)C4)nc3c2CCN(c2cc(O)cc4ccc(F)c(Cl)c24)C3)C1 [Example 68, (R)-1-(7-(8-chloro-7-fluoro-3-hydroxynaphthalen-1-yl)-2-(((2R,7aS)-2-fluorohexahydro-1H-pyrrolizin-7a-yl)methoxy)-5,6,7,8-tetrahydropyrido[3,4-d]pyrimidin-4-yl)-3-methylpiperidin-3-ol]	–	–	–	–	–	–	–	–	–
≤ 2	≤ 2	≤ 2	61	268	1110	111	≥ 10000	545	Nc1cc2n(n1)CCCN(c1nc(OC[C@@]34CCCN3C[C@H](F)C4)nc3c1CCN(c1cc(O)cc4ccc(F)c(Br)c14)C3)C2 [Example 212, 4-(4-(2-amino-7,8-dihydro-4H-pyrazolo[1,5-a][1,4]diazepin-5(6H)-yl)-2-(((2R,7aS)-2-fluorohexahydro-1H-pyrrolizin-7a-yl)methoxy)-5,6-dihydropyrido[3,4-d]pyrimidin-7(8H)-yl)-5-bromo-6-fluoronaphthalen-2-ol]	–	–	–	–	–	–	–	–	–
3	4	3	97	1580	–	448	6120	1020	CC1(O)COCCN(c2nc(OC[C@@]34CCCN3C[C@H](F)C4)nc3c2CCN(c2cc(O)cc4ccc(F)c(Br)c24)C3)C1 (stereo partly drawn) [Example 219, 4-(7-(8-bromo-7-fluoro-3-hydroxynaphthalen-1-yl)-2-(((2R,7aS)-2-fluorohexahydro-1H-pyrrolizin-7a-yl)methoxy)-5,6,7,8-tetrahydropyrido[3,4-d]pyrimidin-4-yl)-6-methyl-1,4-oxazepan-6-ol]	–	–	–	–	–	–	–	–	–
≤ 2	≤ 2	≤ 2	37	530	672	179	2820	352	C[C@@]1(O)CCCN(c2nc(OC[C@@]34CCCN3C[C@H](F)C4)nc3c2CCN(c2cc(O)cc4ccc(F)c(Br)c24)C3)C1 [Example 222, (R)-1-(7-(8-bromo-7-fluoro-3-hydroxynaphthalen-1-yl)-2-(((2R,7aS)-2-fluorotetrahydro-1H-pyrrolizin-7a(5H)-yl)methoxy)-5,6,7,8-tetrahydropyrido[3,4-d]pyrimidin-4-yl)-3-methylpiperidin-3-ol]	–	–	–	–	–	–	–	–	–
≤ 2	≤ 2	≤ 2	19	234	–	320	607	325	O=C1CC2(CCCN(c3nc(OC[C@@]45CCCN4C[C@H](F)C5)nc4c3CCN(c3cc(O)cc5ccc(F)c(Br)c35)C4)C2)N1 (stereo partly drawn) [Example 223, 6-(7-(8-bromo-7-fluoro-3-hydroxynaphthalen-1-yl)-2-(((2R,7aS)-2-fluorohexahydro-1H-pyrrolizin-7a-yl)methoxy)-5,6,7,8-tetrahydropyrido[3,4-d]pyrimidin-4-yl)-1,6-diazaspiro[3.5]nonan-2-one]	–	–	–	–	–	–	–	–	–
